What is called kcat is the number of substrate molecules converted per active site and unit of time at saturation.

One data set deals with LipO (Streptomyces sp. SANK 60405, UniProt D4QF28). Nature of the data set: UV/Vis spectroscopy, co-purification. The data set is classed as binding. Conditions: co-purified cofactor, Lys282 internal aldimine expected.
A further data set deals with LipN (Streptomyces sp. SANK 60405, UniProt D4QF27). Nature of the data set: HPLC, MS and NMR of product. Type of data set: biochemical. As to conditions: sugar donor, uridine as surrogate acceptor, 5 mM MgCl2, 30 °C.
Substrate in the data set “purified protein”: NC[C@H]1O[C@@H](n2ccc(=O)[nH]c2=O)[C@H](O)[C@@H]1O
Nature of the data set: purified protein. As to conditions: pH 7.5, […] phosphate, 30 °C. The data set is classed as biochemical, Escherichia coli.

As for `Cc1ncc(COP(=O)(O)O)c(C=O)c1O` [PLP], on LipO, the “UV/Vis spectroscopy, co-purification” value is reported as “shown by UV/Vis spectroscopy to co-purify with the cofactor PLP”.
As to `NC[C@H]1O[C@H](OP(=O)(O)OP(=O)(O)OC[C@H]2O[C@@H](n3ccc(=O)[nH]c3=O)[C@H](O)[C@@H]2O)[C@H](O)[C@@H]1O` [UDP-5-amino-5-deoxy-α-D-ribose], the “HPLC, MS and NMR of product; donor generated in situ by LipP and LipM” value at LipN was “higher yields were obtained with the genuine sugar donor UDP-5-amino-5-deoxy-α-D-ribose”.

B1: EcUdp (Escherichia coli K-12) (protein)
chain: SKSDVFHLGLTKNDLQGATLAIVPGDPDRVEKIAALMDKPVKLASHREFTTWRAELDGKPVIVCSTGIGGPSTSIAVEELAQLGIRTFLRIGTTGAIQPHINVGDVLVTTASVRLDGASLHFAPLEFPAVADFECTTALVEAAKSIGATTHVGVTASSDTFYPGQERYDTYSGRVVRHFKGSMEEWQAMGVMNYEMESATLLTMCASQGLRAGMVAGVIVNRTQQEIPNAETMKQTESHAVKIVVEAARRLL
Take B1: in the data set “purified protein”, the Km entry is listed as “(2.0 ± 0.5) × 10^3 µM” and the kcat amounted to 5.33 ± 0.667 s⁻¹.

These data come from article PMC3174061 (Journal of the American Chemical Society, 2011).
